Test results from US20020054941A1, “Methods and compositions to enhance tenderness and value of meat” (The Board of Regents of the University of Nebraska, priority 2000, published 2002).
Marks after values point to notes of the source that are not given here.

How the values were obtained:
[1] = test system: sternomandibularis beef muscles; experiment: pH of pre-rigor injected sectioned muscle; conditions: injection 10% of muscle weight, 200 mM (glucose, calcium chloride 300 mM)
Protocol: (§1) Pre-rigor beef muscle was sectioned and the sections were injected at approximately 1 hour post-mortem with a volume of treatment solution equal to 10% of the muscle weight. Objective color measurements were taken on pieces of each muscle section and the pieces were then frozen, powdered and stored at −80° C. for up to 10 days before testing pH and analyzing oxidation-reduction potential. Shear force was evaluated as described immediately above. Solutions used in this procedure were as follows: sodium citrate (200 mM), sodium acetate (200 mM), glucose (300 mM), calcium citrate (200 mM), calcium chloride (300 mM), injection with water, and no injection (control). The calcium citrate solution was prepared as a suspension using 0.25% carrageenan and 200 mM calcium citrate due to its insolubility in water. However, use of calcium citrate can be optimized by increasing solubility by means known in the art.

[2] = test system: semimembranosus beef muscles; experiment: Muscle pH, pre-rigor injection of whole muscle
Protocol: (§2) Experiment were conducted to test the effects of pre-rigor injection of several compounds. Effects of these compounds on pH, color, tenderness and other related traits of low-value beef cuts were investigated. Ten steers (22 to 24 mo of age, 515 to 676 kg live weight) were slaughtered according to current industry procedures. Pre-rigor semimembranosus (from the round), triceps brachii and supraspinatus muscles (from the chuck) were excised, after evisceration (approximately 1 hour post-mortem), from both sides of the carcass. Muscle sections were randomly assigned to the treatments: sodium citrate (NaC; 200 mM), sodium fluoride (NaF; 200 mM), sodium acetate (NaA; 200 mM), and calcium chloride (CaCl2; 300 mM). The control samples remained on the carcass at 2° C. for 24 hours to simulate commercial conditions. Following a cooling, control muscles were removed from each carcass (4 replicates), vacuum packaged and transferred to the holding cooler with the other cuts at 2° C. Calcium chloride treatment was included to be compared with the other treatments.
(§3) At 2 hours post-mortem, each muscle was injected with a volume equal to 8% of the muscle weight using a four-needle hand injector. The temperature of solutions were 4° C. Each muscle was individually treated (2% of solution was added to give a total of 10% of muscle weight) and tumbled in a 75-pound capacity tumbler (Röschermatic, Oshabrück, Germany) for 30 min to insure uniform distribution of the solution.
(§4) Samples of each muscle (approximately 100 g) were taken at 0 hour (before injection), 24, and 72 hours after injection for determination of pH, oxidation-reduction potential, glycogen content, R-values, NAD, and NADH. The samples were then immediately frozen in liquid nitrogen and stored at −80° C. until they were powdered and analyzed. Fresh muscle samples (approximately 20 g) were taken at 72 hours after injection and assayed immediately for water holding capacity and sarcomere length.
(§5) Duplicate pre-rigor samples (5 g) were weighed from powdered sample and homogenized (Polytron, Brinkman Instruments, New York, N.Y.) in 50 mL of 5 mM iodoacetic acid, 150 mM potassium chloride (pH 7.0, 24° C.) to stop glycolysis (Ahn et al., 1992). The pH of the suspension was measured with a general purpose electrode (Corning Glass Works, Corning, N.Y.) attached to an Orion Model SA 720 pH meter (Orion Research, Inc., Boston, Mass.). Post-rigor muscle pH was determined by homogenizing 5 g of sample in 50 mL of deionized water (Winger et al., 1979).

[3] = test system: supraspinatus beef muscles; experiment: Muscle pH, pre-rigor injection of whole muscle
Protocol: as §2, §3, §4, §5

[4] = test system: triceps brachii beef muscles; experiment: Muscle pH, pre-rigor injection of whole muscle; conditions: 200 mM, calcium chloride 300 mM
Protocol: as §2, §3, §4, §5

[5] = test system: semimembranosus beef muscles; experiment: Glycogen content, pre-rigor injection of whole muscle
Protocol: as §2, §3, §4
(§6) Glycogen extraction was performed in duplicate with 3 g of frozen-powdered muscle sample, which was homogenized with 0.6 N perchloric acid. Amylo-α-1,4-α-1,6- glucosidase from Aspergillus niger (No. A3514. Sigma Chemical, St. Louis, Mo.) was used for the breakdown of the glycogen molecules to free glucose following the method described by Roehrig and Allred (1974). Homogenate was incubated for 2 hours at 37° C., then 100 μL of 3 N perchloric acid was added to precipitate the proteins. After centrifugation, the supernatant was stored at 0-4° C., until analyzed, which was within 2 weeks.
(§7) The assay for glucose was run as described by Dalrymple and Hamm (1973) and Roehrig and Allred (1974), using glucose-6-phosphate dehydrogenase (No. G8878. Sigma Chemical, St. Louis, Mo.) and hexokinase (No. H5500. Sigma Chemical, St. Louis, Mo.). Briefly, the method involves an exoglucosidase, Amylogucosidase, from Aspergillus niger which hydrolyses the -α-D-(1-4) and -α-D-(1-6)-linkages of glycogen. The glucose formed is specifically determined with hexokinase and glucose-6-phosphate dehydrogenase. The glucose liberated after hydrolysis of glycogen is proportional to the increase of absorbance measured at 340 nm. Fifty μL of sample was incubated with 1 mL ATP, NADP, Glucose-6-phosphate dehydrogenase buffer and 5 μL hexokinase at 37° C. for 15 min. Absorbance was measured at 340 nm wavelength, light path=1 cm. The muscle glycogen content was calculated with the following formula: Glycogen (μmol glucose/g wet muscle weight)=111.882×absorbance. 111.882 is the dilution factor.

[6] = test system: supraspinatus beef muscles; experiment: as above
Protocol: as §2, §3, §4, §6, §7

[7] = test system: triceps brachii beef muscles; experiment: as above; conditions: 200 mM, calcium chloride 300 mM
Protocol: as §2, §3, §4, §6, §7

[8] = test system: semimembranosus beef muscles; experiment: Warner-Bratzler shear force, pre-rigor injection of whole muscle; conditions: 200 mM, calcium chloride 300 mM
Protocol: as §2, §3
(§8) Tenderness of samples was evaluated by measuring Warner-Bratzler shear force. Steaks (2.54-cm thick) from the middle of each muscle were cut and frozen at 3, 7 and 14 days postmortem. Frozen steaks (2.54 cm thick) were thawed at 4° C. for 24 hours and cooked on Farberware Open Hearth Broilers (Model 350A Walter Kidde, Bronx, N.Y.) to an internal temperature of 40° C., turned, and cooked to a final internal temperature of 70° C. (AMSA, 1995). Temperature was monitored using an OMEGA thermocouple thermometer type T (Omega Engineering, Inc., Stamford, Conn.) inserted into the geometric center of a steak. The cooked steaks were chilled 2 hours at 2° C., and then 8 cores (1.27-cm diameter) were removed parallel to the muscle fiber orientation. Cores were sheared once each on an Instron Universal Testing Machine model 55R1123 (Instron, Canton, Mass.) with a Warner-Braztler attachment. The Instron was set up with a 500 kg load cell, full scale load=1 (0-10 kg), and crosshead speed=250 mm/mim.

[9] = test system: supraspinatus beef muscles; experiment: as above; conditions: 200 mM, calcium chloride 300 mM; for Shear force, 7 d: 7 d postmortem
Protocol: as §2, §3, §8

[10] = test system: triceps brachii beef muscles; experiment: as above; conditions: 200 mM, calcium chloride 300 mM
Protocol: as §2, §3, §8

[11] = test system: sternomandibularis beef muscles; experiment: Shear force of pre-rigor injected sectioned muscle; conditions: 200 mM (glucose, calcium chloride 300 mM)
Protocol: Pre-rigor beef muscle was sectioned into 100 g. samples at approximately 3 hours post-mortem. The pieces were injected with 10 mL of treatment solution followed by marination in the solution for 24 hours at 2° C. before testing pH and recording visual color of the muscle sections. For evaluation of shear force, samples were thawed, cooked, sliced (approximately 6 mm by 6 mm) and then cooled before readings were taken. The solutions used for this procedure were as described above for homogenized muscle.
as §1

[12] = 24 h, 200 mM, calcium chloride 300 mM
[13] = 72 h, 200 mM, calcium chloride 300 mM

CC(=O)[O-].[Na+] [Sodium acetate, sodium acetate]
PH (0 h) ([1]; 0 h): 6.86 | pH, 72 h ([1]; 72 h): 5.80^cd | pH, 0 h ([2]; 0 h (before injection)): 6.75 | pH, 24 h [2, 12]: 5.70^b | pH, 72 h [2, 13]: 5.38^d | pH, 0 h ([3]; 0 h (before injection)): 6.81 | pH, 24 h [3, 12]: 5.85^c | pH, 72 h [3, 13]: 5.64^c | pH, 0 h ([4]; 0 h (before injection)): 6.78 | pH, 24 h ([4]; 24 h after injection): 5.80^b | pH, 72 h ([4]; 72 h after injection): 5.48^c | Glycogen, 0 h ([5]; 0 h (before injection)): 64.24 μmol/g muscle | Glycogen, 24 h [5, 12]: 40.88^b μmol/g muscle | Glycogen, 72 h [5, 13]: 28.64^b μmol/g muscle | Glycogen, 0 h ([6]; 0 h (before injection)): 42.83 μmol/g muscle | Glycogen, 24 h [6, 12]: 24.43 μmol/g muscle | Glycogen, 72 h [6, 13]: 18.10^b μmol/g muscle | Glycogen, 0 h ([7]; 0 h (before injection)): 49.53 μmol/g muscle | Glycogen, 24 h ([7]; 24 h): 28.74^b μmol/g muscle | Glycogen, 72 h ([7]; 72 h): 27.22^b μmol/g muscle | Shear force, 3 d ([8]; 3 d postmortem): 6.61 kg | Shear force, 7 d ([8]; 7 d postmortem): 5.78 kg | Shear force, 14 d ([8]; 14 d postmortem): 5.08 kg | Shear force, 3 d ([9]; 3 d postmortem): 7.85^a kg | Shear force, 7 d [9]: 6.95^a kg | Shear force, 7 d ([9]; listed as NaA): significant increase in shear force | Shear force, 3 d ([10]; 3 d postmortem): 6.47^a kg | Shear force, 7 d ([10]; 7 d postmortem): 5.96^a kg | Shear force, 14 d ([10]; 14 d postmortem): 4.67 kg | Shear force, kg (72 h) [11]: 9.88^ab kg
